Here are results for 1 compound from patent US8153784B2, “Imaging of enzyme activity” (The General Hospital Corporation, priority 2004, dated 2012).

This assay concerns the target T1, human myeloperoxidase (MPO) (Homo sapiens, UniProt P05164).
T1 construct: purchased BioDesign Inc
The assay is described as follows: Pseudo-first-order rate constants of MPO-mediated conversion (relaxation times over time, 0.47 T). It counts as biochemical. As for the experimental part:
Kinetics of the samples were observed by measuring T1 and T2 at 0.47 T and 40° C. of the samples over at least a 24 hour period. At different time points, 1 M of sodium azide (final concentration=0.17 M) was added to stop the enzyme mediated reaction. The resultant progress curve was fitted with an empirical mathematical model and analyzed according to the Guggenheim method to obtain the pseudo-first-order rate constants (Guggenheim E A. Philos. Mag. 1926; 2:538).
An important property of a suitable substrate for an enzyme is the kinetics of enzymatic reaction. To determine the utility of the paramagnetic complexes as suitable substrates for human myeloperoxidase (MPO), we measured the pseudo-first-order rate constant of these substrates in MPO, and compared to the same substrates' reactions in Horse Radish Peroxidase (HRP) by monitoring the changes in relaxation time over time. […] The results shown were obtained using T1 measurements. T2 measurements yielded nearly identical results. The results are presented as mean±SD. N/A=not applicable.

SMILES strings stand for the structures.

T1 sequence (P05164 279-745 limits assumed): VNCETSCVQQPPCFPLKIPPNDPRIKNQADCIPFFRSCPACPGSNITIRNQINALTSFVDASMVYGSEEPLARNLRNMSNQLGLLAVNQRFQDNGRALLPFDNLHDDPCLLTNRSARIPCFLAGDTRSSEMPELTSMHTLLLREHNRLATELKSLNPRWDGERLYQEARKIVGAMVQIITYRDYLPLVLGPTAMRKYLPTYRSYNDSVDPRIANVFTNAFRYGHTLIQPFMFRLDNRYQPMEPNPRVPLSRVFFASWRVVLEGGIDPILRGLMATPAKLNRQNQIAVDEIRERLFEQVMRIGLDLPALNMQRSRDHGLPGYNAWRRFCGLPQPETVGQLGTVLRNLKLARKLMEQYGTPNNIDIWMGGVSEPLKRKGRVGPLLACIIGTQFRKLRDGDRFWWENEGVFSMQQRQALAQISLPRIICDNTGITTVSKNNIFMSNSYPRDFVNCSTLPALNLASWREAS
T1 sequence (P05164 165-273 limits assumed): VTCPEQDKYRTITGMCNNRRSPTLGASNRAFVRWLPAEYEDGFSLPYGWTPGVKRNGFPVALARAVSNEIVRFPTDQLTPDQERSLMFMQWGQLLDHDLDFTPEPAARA

For `CC(C(=O)NCC(=O)NCCc1c[nH]c2ccc(O)cc12)N1CCN(CC(=O)[O-])CCN(CC(=O)[O-])CCN(CC(=O)[O-])CC1.[Gd+3]` (centres unmarked) [5-HT-DOTA(Gd), Glycylmethyl DOTA(Gd) 5-Hydroxytryptamide], the “fraction of the final relaxation rate obtained within the first 5 minutes” value is “more than 80%”. The “Pseudo first-order rate constant” value (from T1 measurements, mean±SD) was found to be 0.0063 s⁻¹.
